Test results: patent US20240115622A1, “FORMULATION FOR THE PREVENTION AND/OR TREATMENT OF COVID-19” (priority 2022, published 2024)
Read-outs that look alike come from different tables or passages of the source.

How the values were obtained:
VERO E6 cells [1] = tested on: VERO E6 cells
VERO E6 cells [2] = experiment: cytotoxicity of the compounds on Vero E6 cells
porcine coronavirus PEDV = experiment: PEDV infection of Vero E6 cells, antiviral activity by CPE
[3] = tested on: human respiratory coronavirus OC43; experiment: HCT-8 cells infected with human respiratory coronavirus OC43, antiviral effect (CPE, WST-1); assay type: cell-based

Row | Molecule | cytotoxicity (VERO E6 cells [1]) | cytotoxicity, effect of low concentration of FBS (VERO E6 cells [1]) | cytotoxicity, effect of low concentration of FBS (VERO E6 cells [2]; medium supplemented with 2% FBS) | cytotoxicity (VERO E6 cells [2]; medium without FBS) | visual scores of the CPE, effect against PEDV infection (porcine coronavirus PEDV; FIG. 1, 3 days post infection, PEDV-infected Vero E6 cells, low concentrations) | low concentration with protective effect against PEDV infection (below the cytotoxic concentrations) (porcine coronavirus PEDV; Vero E6 cells, medium with 2% FBS, speculated, to be better sustained) [%] | PEDV induced cytotoxicity (porcine coronavirus PEDV; medium without FBS, high concentrations of the compound) | time for which a significant effect was sustained ([3]; after 2 hours of treatment exposure) [days] | concentration with optimal effect in protecting cells from coronaviral infection ([3]; overall conclusion of the coronavirus experiments) [%]
1 | propolis | very high | significantly decreased | – | – | – | – | – | – | –
2 | OC[C@@H](O)[C@H](O)[C@@H](O)CO [xylitol] | – | – | significantly decreased | very high | protective effects | ≤ 3 | higher | 4 | 0.5
